A melting point compilation (Tetko et al.)

| SMILES | melting point |
| --- | --- |
| O=[N+]([O-])c1ccc2nc(Cl)ccc2c1 | 224 to 226 °C |
| NCc1ccc(C(N)=O)cc1 | 141 to 143 °C |
| Nc1oc2ccc(F)cc2c(=O)c1C=O | 251 to 253 °C |
| O=C(O)/C=C/c1ccccn1 | 201 to 203 °C |
| NNS(=O)(=O)c1ccccc1[N+](=O)[O-] | 89 to 91 °C |
| NS(=O)(=O)CCSc1ccccc1 | 106 to 108 °C |
| O=C(O)c1csc(-c2ccccc2)n1 | 160 to 161 °C |
| O=C(NCCc1ccccn1)OCC(F)(F)F | 59 to 61 °C |
| Cc1oc(-c2cccs2)nc1CC(=O)O | 185 to 187 °C |
| Cc1ccc(OCc2ccc(C(=O)O)o2)cc1 | 204 to 206 °C |
| Nc1cc(=O)[nH][nH]1 | 204 to 206 °C |
| CCC(CC(=O)O)c1ccc(OC)cc1 (stereo unspecified) | 83 to 85 °C |
| CNC(=O)COc1ccc(CC(=O)O)cc1 | 143 to 145 °C |
| O=C(NC(C(=O)O)c1ccccc1)OCC1c2ccccc2-c2ccccc21 (stereo unspecified) | 170 to 172 °C |
| Cc1ccc(S(=O)(=O)Cl)cc1S(=O)(=O)N1CCCCC1 | 111 to 113 °C |
| Nc1nc2ccccc2nc1Cl | 141 to 143 °C |
| CN(c1ccc(C(=O)CCl)cc1)S(C)(=O)=O | 75 to 77 °C |
| ClCc1coc(-c2ccccc2Cl)n1 | 54 to 56 °C |
| COC(=O)c1ccc(S(=O)(=O)Cl)cc1C | 54 to 56 °C |
| Cc1ccc(C(=O)O)cc1N1C(=O)C2CC=CCC2C1=O (stereo unspecified) | 221 to 223 °C |
| CC(Br)C(=O)c1ccc2c(c1)CCC(=O)N2 (stereo unspecified) | 193 to 195 °C |
| CCC(NC(=O)c1ccccc1)C(N)=S (stereo unspecified) | 244 to 246 °C |
| N#CCc1nccn1CC(F)(F)F | 106 to 108 °C |
| O=c1c(Cl)c(Cl)cnn1-c1cccc(C(F)(F)F)c1 | 92 to 94 °C |
| COCc1nc(CC(=O)O)cs1 | 59 to 61 °C |

| SMILES | melting point |
| --- | --- |
| O=C1NCCc2ccc(F)cc21 | 119 to 121 °C |
| Cc1ccc(Cl)c2c1NC(=O)C2=O | 275 to 277 °C |
| Cc1nnc(CN)s1 | 76 to 78 °C |
| NC(=S)c1ccn[nH]1 | 183 to 185 °C |
| CC(C)CNC(=O)c1ccccc1N | 109 to 111 °C |
| O=C(O)Cc1ccc(S(=O)(=O)CC(F)F)cc1 | 135 to 137 °C |
| c1ccc(CNc2ccc(N3CCOCC3)cc2)nc1 | 132 to 134 °C |
| CC(C)(C)NC(=O)c1ccccc1C(=O)O | 146 to 148 °C |
| Cc1cccnc1NC1CCCCC1 | 81 to 83 °C |
| O=S(=O)(Cl)Cc1c(Cl)cccc1Cl | 70 to 72 °C |
| O=C(CO)N1CCNCC1 | 69 to 71 °C |
| CNS(=O)(=O)c1ccc(C#N)cc1 | 128 to 130 °C |
| COc1cc(OC)c(C(=O)NO)cc1OC | 187 to 189 °C |
| C#CCN1C(=O)C(=O)c2cc(Br)ccc21 | 164 to 166 °C |
| O=C(O)CCOc1ccc(F)c(Cl)c1 | 82 to 84 °C |
| O=C(O)C1CC(=O)N(CCN2CCOCC2)C1 (stereo unspecified) | 159 to 161 °C |
| O=C(O)c1cc2ccc(C(F)(F)F)cc2[nH]1 | 143 to 145 °C |
| CCOC(=O)c1[nH]c2c(c1C)C(=O)CCC2 | 159 to 161 °C |
| O=[N+]([O-])c1ccc(O)c(Cc2ccccc2)c1 | 117 to 121 °C |
| O=C(O)CNC(=O)Nc1ccccc1 | 196 to 198 °C |
| COc1ccc(CC(O)C(=O)O)cc1 (stereo unspecified) | 84 to 86 °C |
| CCOc1ccc(Br)cc1S(N)(=O)=O | 143 to 145 °C |
| O=C(C=NO)Nc1cccc(C(F)(F)F)c1 | 115 to 117 °C |
| O=C(O)c1ccc(-n2cc(Br)cn2)nn1 | 209 to 211 °C |
| O=C1CCN(C(=O)C2CC2)CC1 | 72 to 74 °C |

| SMILES | melting point |
| --- | --- |
| CCC(=O)c1ccc(Cl)s1 | 47 to 49 °C |
| CS(=O)(=O)C(Br)C(=O)c1ccccc1 (stereo unspecified) | 90 to 92 °C |
| Cc1ccc(Cn2c(N)cc(=O)[nH]c2=O)cc1 | 279 to 281 °C |
| O=c1[nH]c(S)nc2cc(Cl)ccc12 | 306 to 308 °C |
| Nc1ccnc(Cc2ccccc2)n1 | 143 to 145 °C |
| Nc1ccc2[nH]c(CC3CCCCC3)nc2c1 | 267 to 269 °C |
| CN(CC(=O)Nc1ccccc1Cl)C(=O)CCl | 115 to 117 °C |
| O=C(Cn1cnnn1)Nc1ccccc1C(=O)O | 194 to 196 °C |
| NC(=S)CCN1CCOC1=O | 140 to 142 °C |
| CC(C)S(=O)(=O)NCC1CCCNC1 (stereo unspecified) | 156 to 158 °C |
| COc1cc(N)ccc1S(=O)(=O)N1CCCC1 | 145 to 147 °C |
| O=C(O)CNC(=O)c1ccc(Cl)cc1 | 214 to 216 °C |
| CN(C)S(=O)(=O)c1ccc2[nH]c(CO)nc2c1 | 232 to 234 °C |
| O=Cc1ccc(OCC(=O)Nc2ccc(Cl)cc2)cc1 | 139 to 141 °C |
| CCc1onc(C)c1C(=O)O | 126 to 128 °C |
| CCNc1ccc(C(=O)OCC)cc1[N+](=O)[O-] | 91 to 95 °C |
| O=C(O)C1CC1c1cccc(Br)c1 (stereo unspecified) | 115 to 117 °C |
| O=C(O)C(Nc1ccccc1)c1ccccc1F (stereo unspecified) | 115 to 117 °C |
| O=C(O)Cn1c(-c2ccccc2)cc2ccccc21 | 145 to 147 °C |
| Cc1ccc(O)c(C(=O)N2CCC(C(=O)O)CC2)c1 | 184 to 186 °C |
| CCOC(=O)c1ccc2c(c1)nc(CCl)n2CC | 91 to 93 °C |
| C#CCOc1ccc(Br)cc1C=O | 94 to 98 °C |
| COc1ccc(-c2nnc(S)n2C(C)C)cc1 | 218 to 220 °C |
| Cc1ccc(C(=O)c2c(N)sc3c2CCC3)c(C)c1 | 163 to 165 °C |
| O=C(O)c1cnn(-c2ccccc2)c1C1CC1 | 173 to 175 °C |

| SMILES | melting point |
| --- | --- |
| O=Cc1sc(Cl)nc1Cl | 38 to 42 °C |
| Cc1ccc(-c2cnnc(N)n2)s1 | 300 to 302 °C |
| CCc1c(N)cnn1C | 49 to 51 °C |
| Cc1c(N)cccc1S(N)(=O)=O | 212 to 214 °C |
| Cc1cc(C2(C)NC(=O)NC2=O)c(C)o1 (stereo unspecified) | 144 to 146 °C |
| NS(=O)(=O)c1cc(C(=O)O)cs1 | 194 to 196 °C |
| O=C(Cc1cccc2ccccc12)NO | 179 to 181 °C |
| COc1ccc(SC)c(OC)c1C(=O)O | 117 to 119 °C |
| Cc1cc2n(n1)CCC(=O)N2 | 221 to 223 °C |
| O=C(CCl)Nc1c(F)cc(F)cc1Br | 132 to 134 °C |
| COc1ccc(NC(N)=S)cc1 | 208 to 210 °C |
| CC(C)C(NCC(F)(F)F)C(=O)O (stereo unspecified) | 128 to 130 °C |
| O=c1oc2ccc([N+](=O)[O-])cc2n1CCCBr | 109 to 111 °C |
| COc1ccc(-c2csc(C)n2)cc1 | 55 to 57 °C |
| O=C(O)C1(c2ccccc2Cl)CCOCC1 | 201 to 203 °C |
| COc1ccc(-c2cncc(C(=O)O)c2)cc1 | 278 to 280 °C |
| O=C(Nc1cccnc1)c1cccc(Br)c1 | 133 to 135 °C |
| Cc1cnoc1N | 59 to 61 °C |
| Nc1cccc(Cn2cnnc2)c1 | 139 to 141 °C |
| CN(CCO)c1ccc(N)nc1 | 82 to 84 °C |
| O=C(O)Cc1c[nH]c2cc(F)ccc12 | 159 to 161 °C |
| Nc1ncn(Cc2ccc(Br)cc2)n1 | 169 to 171 °C |
| COc1ccc(S(N)(=O)=O)cc1OC | 135 to 137 °C |
| Nc1ccc(Oc2ccccn2)cc1 | 62 to 64 °C |
| NC(=O)COc1cccc(CO)c1 | 116 to 118 °C |

| SMILES | melting point |
| --- | --- |
| Cn1cc(N2CCC(N)C2=O)cn1 (stereo unspecified) | 131 to 133 °C |
| O=C(O)C(Oc1cc(Cl)ccc1Cl)c1ccccc1 (stereo unspecified) | 144 to 146 °C |
| CN(Cc1ccccc1)C(=O)NCCC(=O)O | 120 to 122 °C |
| Nc1cc2c(cc1Sc1ccccc1)OCCO2 | 74 to 76 °C |
| O=C(O)c1ccc(Cl)c(S(=O)(=O)N2CCc3ccccc32)c1 | 195 to 197 °C |
| CC(NC(=O)CC#N)c1ccccc1 (stereo unspecified) | 115 to 117 °C |
| Nc1nnc(-c2cccc(Br)c2)o1 | 209 to 211 °C |
| COc1ccc(NC(=O)c2ccc(N)cc2)cc1 | 187 to 189 °C |
| COC(=O)c1c(N)sc2c1CCCCC2 | 94 to 98 °C |
| Cc1cc2ncc(C=O)cn2n1 | 149 to 151 °C |
| Cc1cnc(Cl)cc1O | 173 to 175 °C |
| CN(CCCN1C(=O)C=CC1=O)c1ccccc1 | 84 to 86 °C |
| O=C1NC2(CCN(Cc3ccccc3)CC2)CO1 | 164 to 166 °C |
| Cc1ccc2c(C)cc(=O)[nH]c2c1 | 209 to 211 °C |
| Cc1c(C(=O)O)cnn1C1CCOCC1 | 207 to 209 °C |
| O=C(O)CNC(=O)c1ccccc1C(F)(F)F | 152 to 154 °C |
| Cc1ccc(C(=O)O)cc1NS(=O)(=O)c1ccc(F)cc1 | 234 to 236 °C |
| c1c[nH]c(C2CCCCN2)n1 (stereo unspecified) | 144 to 146 °C |
| CNS(=O)(=O)c1ccc(Cl)s1 | 45 to 47 °C |
| CC1=NN(C2CCS(=O)(=O)C2)C(=O)C1 (stereo unspecified) | 185 to 187 °C |
| FC(F)(F)c1nc2c([nH]1)CCCC2 | 229 to 231 °C |
| Nc1nc(Cc2ccc(Cl)cc2Cl)cs1 | 96 to 98 °C |
| O=C(O)CCCN1C(=O)CCC1=O | 102 to 104 °C |
| CC(Oc1ccc(Cl)c(Cl)c1)C(=O)O (stereo unspecified) | 125 to 127 °C |
| COc1ccc(Cl)cc1CCl | 44 to 46 °C |

| SMILES | melting point |
| --- | --- |
| CN(C)c1cccc(N)n1 | 41 to 43 °C |
| O=C(O)CSc1ccccc1F | 80 to 82 °C |
| CCOc1ccccc1N1CC(C(=O)O)CC1=O (stereo unspecified) | 104 to 108 °C |
| Nc1ccc(N2CCOCC2)c(F)c1 | 121 to 123 °C |
| Cc1cc(S(=O)(=O)Cl)ccc1OCCCC(=O)O | 135 to 137 °C |
| Nc1cccc(-c2n[nH]c3c2CCC3)c1 | 168 to 170 °C |
| CCCC(NC(=O)c1ccccc1)C(N)=S (stereo unspecified) | 202 to 204 °C |
| CC(Oc1ccc(Cl)cc1Br)C(=O)O (stereo unspecified) | 122 to 124 °C |
| ClC(Cl)(Cl)C(c1ccc(Br)cc1)c1ccc(Br)cc1 | 144 to 146 °C |
| O=C(O)C1CCCN(C(=O)C2Cc3cc(Cl)ccc3O2)C1 (stereo unspecified) | 159 to 161 °C |
| Brc1ccc(Cn2cccn2)cc1 | 43 to 45 °C |
| CC(=O)Nc1ccc(O)c(C(=O)O)c1 | 221 to 223 °C |
| Cc1cccc2c(CC(=O)O)c[nH]c12 | 188 to 190 °C |
| Cc1ccccc1C1(C(=O)O)CCCCC1 | 162 to 164 °C |
| Nc1ccc2c(c1)nc1n2CCCCC1 | 180 to 182 °C |
| Nc1nc(-c2ccccc2)no1 | 149 to 151 °C |
| Fc1ccc(COc2ccc(CCl)cc2)cc1 | 57 to 59 °C |
| COC(=O)c1n[nH]c(=O)c2noc(C)c12 | 215 to 217 °C |
| Cc1sc(N)nc1-c1ccc(F)cc1 | 122 to 124 °C |
| CCOC(=O)c1c(-c2ccc(C)o2)csc1N | 93 to 95 °C |
| Nc1cc(F)c([N+](=O)[O-])cc1C(=O)O | 249 to 251 °C |
